The values below come from patent publication US9649313B2, “Use of ITK inhibitors for the treatment of cancer” (The University of North Carolina at Chapel Hill, priority 2012, dated 2017).

Usually inhibition stands for the drop in the measured response relative to a control, in per cent. In general, IC50 refers to the midpoint of a concentration-inhibition curve. Read a low IC50 as higher potency.

Test [1] deals with SKMEL 153 (ITKHI) melanoma cell line. Kind of test: proliferation assay (cell counts). It counts as cell-based, Human. The settings on record: 50 nM. Here is the method:
FIG. 5A-5C. Effects of BI 10N inhibitor on proliferation and motility of melanoma cells. FIG. 5A) Cell motility assays were performed as described in FIG. 4A-4E; however, the inhibitor BI 10N was added to the media to decrease ITK kinase activity in parental cell lines instead of using the shRNA ITK knockdown cell lines. BI 10N was added to the media 24 hours prior to the start of the motility assay and the VivaView camera system was used to image cellular motility of the melanoma cells as described previously. FIG. 5B) The proliferation assays were completed as described in FIG. 4A-4E, substituting the BI 10N compound for the shRNA. Cells were trypsinized and counted using the Invitrogen Countess. Fifty thousand cells were placed into each well of a 6 well plate and BI 10N was added to the indicated concentrations. The cells were counted with the Invitrogen Countess at 3, 5, and 6 or 7 days after plating to assess the proliferation rates of the different cell lines in the presence of BI 10N. FIG. 5C) Both ITKHI (RPMI 8322) and ITKLO (PMWK) melanoma cell lines were grown in the presence of BI 10N (10-200 nM) in soft agar. In 24-well cell culture plates 2,500 cells per well were added to a 1.4% agarose solution. The agarose and cell solution was then poured on top of a solidified base agar. The cells were incubated at 37° C. for three to four weeks to ensure adequate growth before analysis. FIG. 5D) Cell cycle analysis of PMWK, VMM 39, and RPMI 8322 cells that have been treated with increasing concentrations of BI 10N. Following 3 days of BI 10N treatment, the cells were incubated with EdU for 3 hours and were subsequently assessed for 5-ethynyl-2′-deoxyuridine (EdU) incorporation rate and DNA content with FxCycle Violet. […]
Human melanoma cell lines were plated onto 10 cm^2 6 well dishes at a density of 50,000 cells per well. […] Five hundred […] of media was added to the cell suspension, the cells were removed from the well and then counted using the Countess® Automated Cell Counter from Life Technologies (cat #C10227). […]

The target of another test is T1, PYK2 (Homo sapiens, UniProt Q14289).
T1 construct: purchased Carna Biosciences
The test can be described thus: cell-free kinase assay. Type of test: biochemical. The settings on record: single inhibitor concentration. The text has this:
(§1) We investigated the potency and selectivity of BI 10N against 56 kinases using a cell-free assay (Table 8A).
(§2) The selectivity of this inhibitor was investigated by testing the potency of the inhibitor at two concentrations with 53 kinases by Carna Biosciences (MA) (Table 2).

Another test deals with T2, PDGFRα (Homo sapiens, UniProt P16234).
T2 construct: purchased Carna Biosciences
Kind of test: cell-free kinase assay. It counts as biochemical.
Excerpt: as §1, §2

In another test the target is T3, LYNa (Homo sapiens, UniProt P07948).
T3 construct: purchased Carna Biosciences
The test can be described thus: cell-free kinase assay. It counts as biochemical. The settings on record: ATP concentration at approximately the Km for ATP.
Excerpt: as §1, §2

Another test deals with T4, PAK2 (Homo sapiens, UniProt Q13177).
T4 construct: purchased Carna Biosciences
Kind of test: cell-free kinase assay. It counts as biochemical. The settings on record: single inhibitor concentration.
Excerpt: as §1, §2

The next test concerns the target T5, MST1 (Homo sapiens, UniProt Q13043).
T5 construct: purchased Carna Biosciences
T5 sequence (Q13043 1-487): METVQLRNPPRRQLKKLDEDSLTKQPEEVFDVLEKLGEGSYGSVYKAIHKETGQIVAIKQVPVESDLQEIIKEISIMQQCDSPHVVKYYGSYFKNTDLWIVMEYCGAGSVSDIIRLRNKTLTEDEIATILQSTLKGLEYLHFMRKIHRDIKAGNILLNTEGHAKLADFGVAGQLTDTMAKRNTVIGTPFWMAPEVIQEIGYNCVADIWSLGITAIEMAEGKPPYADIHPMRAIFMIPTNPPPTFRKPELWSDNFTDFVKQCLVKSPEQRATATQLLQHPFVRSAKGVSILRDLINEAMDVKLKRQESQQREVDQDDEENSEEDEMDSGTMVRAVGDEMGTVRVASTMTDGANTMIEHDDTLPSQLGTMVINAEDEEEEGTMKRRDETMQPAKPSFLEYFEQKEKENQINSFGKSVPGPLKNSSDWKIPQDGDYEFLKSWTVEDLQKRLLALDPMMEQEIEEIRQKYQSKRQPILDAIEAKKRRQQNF
Kind of test: cell-free kinase assay. Type of test: biochemical.
Excerpt: as §1, §2

Another test concerns the target T6, TRKB (Homo sapiens, UniProt Q16620).
T6 construct: purchased Carna Biosciences
The test can be described thus: cell-free kinase assay. It counts as biochemical.
Excerpt: as §1, §2

The target of another test is T7, DAPK1 (Homo sapiens, UniProt P53355).
T7 construct: purchased Carna Biosciences
Kind of test: cell-free kinase assay. Type of test: biochemical. The settings on record: single inhibitor concentration.
Excerpt: as §1, §2

The target in the next test is T8, CHK1 (Homo sapiens, UniProt O14757).
T8 construct: purchased Carna Biosciences
Kind of test: cell-free kinase assay. Type of test: biochemical. The settings on record: single inhibitor concentration.
Excerpt: as §1, §2

The target in the next test is T9, AKT1 (Homo sapiens, UniProt P31749).
T9 construct: purchased Carna Biosciences
Kind of test: cell-free kinase assay. Type of test: biochemical. The settings on record: single inhibitor concentration.
Excerpt: as §1, §2

The target in another test is T10, p38α (Homo sapiens, UniProt Q16539).
T10 construct: purchased Carna Biosciences
The test can be described thus: cell-free kinase assay. It counts as biochemical. The settings on record: single inhibitor concentration.
Excerpt: as §1, §2

Another test addresses T11, PBK (Homo sapiens, UniProt Q96KB5).
T11 construct: purchased Carna Biosciences
Kind of test: cell-free kinase assay. Type of test: biochemical. The settings on record: single inhibitor concentration.
Excerpt: as §1, §2

For the next test, the target named is T12, Erk2 (Homo sapiens, UniProt P28482).
T12 construct: purchased Carna Biosciences
The test can be described thus: cell-free kinase assay. It counts as biochemical. The settings on record: single inhibitor concentration.
Excerpt: as §1, §2

In the next test the target is T13, BLK (Homo sapiens, UniProt P51451).
T13 construct: purchased Carna Biosciences
The test can be described thus: cell-free kinase assay. The settings on record: ATP concentration at approximately the Km for ATP. It counts as biochemical.
Excerpt: as §1, §2

For the next test, the target named is T14, PIM1 (Homo sapiens, UniProt P11309).
T14 construct: purchased Carna Biosciences
Kind of test: cell-free kinase assay. It counts as biochemical. The settings on record: single inhibitor concentration.
Excerpt: as §1, §2

The next test addresses T15, TSSK1 (Homo sapiens, UniProt Q9BXA7).
T15 construct: purchased Carna Biosciences
Kind of test: cell-free kinase assay. Type of test: biochemical.
Excerpt: as §1, §2

The target in the next test is T16, CK1ε (Homo sapiens, UniProt P49674).
T16 construct: purchased Carna Biosciences
Kind of test: cell-free kinase assay. The settings on record: single inhibitor concentration. Type of test: biochemical.
Excerpt: as §1, §2

The target in another test is T17, CSK (Homo sapiens, UniProt P41240).
T17 construct: purchased Carna Biosciences
Kind of test: cell-free kinase assay. The settings on record: single inhibitor concentration. Type of test: biochemical.
Excerpt: as §1, §2

The next test has as its target T18, JAK3 (Homo sapiens, UniProt P52333).
T18 construct: purchased Carna Biosciences
The test can be described thus: cell-free kinase assay. Type of test: biochemical. The settings on record: single inhibitor concentration.
Excerpt: as §1, §2

T2 sequence (P16234 24-1089): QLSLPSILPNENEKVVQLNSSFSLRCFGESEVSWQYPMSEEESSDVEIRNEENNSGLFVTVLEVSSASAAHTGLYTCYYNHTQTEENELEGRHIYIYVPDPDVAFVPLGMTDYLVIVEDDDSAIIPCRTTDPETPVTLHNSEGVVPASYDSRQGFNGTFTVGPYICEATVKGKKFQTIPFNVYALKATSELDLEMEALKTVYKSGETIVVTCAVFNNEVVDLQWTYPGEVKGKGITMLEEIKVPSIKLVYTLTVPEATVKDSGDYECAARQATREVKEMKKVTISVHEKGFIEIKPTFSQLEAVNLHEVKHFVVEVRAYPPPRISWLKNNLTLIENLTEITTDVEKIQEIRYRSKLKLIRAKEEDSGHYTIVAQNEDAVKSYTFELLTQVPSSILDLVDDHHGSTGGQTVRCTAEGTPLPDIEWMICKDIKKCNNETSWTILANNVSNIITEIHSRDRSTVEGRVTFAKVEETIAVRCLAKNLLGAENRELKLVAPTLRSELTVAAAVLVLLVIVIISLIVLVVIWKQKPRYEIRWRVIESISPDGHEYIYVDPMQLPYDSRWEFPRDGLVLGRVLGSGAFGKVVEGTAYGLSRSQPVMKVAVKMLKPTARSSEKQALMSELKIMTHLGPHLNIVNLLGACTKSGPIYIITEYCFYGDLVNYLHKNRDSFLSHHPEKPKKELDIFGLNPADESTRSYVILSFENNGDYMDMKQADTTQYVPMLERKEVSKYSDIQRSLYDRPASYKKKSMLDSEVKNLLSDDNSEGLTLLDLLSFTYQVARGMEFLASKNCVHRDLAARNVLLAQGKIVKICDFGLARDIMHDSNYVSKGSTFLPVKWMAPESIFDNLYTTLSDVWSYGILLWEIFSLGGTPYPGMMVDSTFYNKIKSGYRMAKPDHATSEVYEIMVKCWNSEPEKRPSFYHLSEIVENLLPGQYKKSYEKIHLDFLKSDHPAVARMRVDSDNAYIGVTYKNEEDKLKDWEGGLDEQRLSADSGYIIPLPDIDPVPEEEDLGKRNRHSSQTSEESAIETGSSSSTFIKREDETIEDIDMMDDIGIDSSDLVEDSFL
T6 sequence (Q16620 32-822): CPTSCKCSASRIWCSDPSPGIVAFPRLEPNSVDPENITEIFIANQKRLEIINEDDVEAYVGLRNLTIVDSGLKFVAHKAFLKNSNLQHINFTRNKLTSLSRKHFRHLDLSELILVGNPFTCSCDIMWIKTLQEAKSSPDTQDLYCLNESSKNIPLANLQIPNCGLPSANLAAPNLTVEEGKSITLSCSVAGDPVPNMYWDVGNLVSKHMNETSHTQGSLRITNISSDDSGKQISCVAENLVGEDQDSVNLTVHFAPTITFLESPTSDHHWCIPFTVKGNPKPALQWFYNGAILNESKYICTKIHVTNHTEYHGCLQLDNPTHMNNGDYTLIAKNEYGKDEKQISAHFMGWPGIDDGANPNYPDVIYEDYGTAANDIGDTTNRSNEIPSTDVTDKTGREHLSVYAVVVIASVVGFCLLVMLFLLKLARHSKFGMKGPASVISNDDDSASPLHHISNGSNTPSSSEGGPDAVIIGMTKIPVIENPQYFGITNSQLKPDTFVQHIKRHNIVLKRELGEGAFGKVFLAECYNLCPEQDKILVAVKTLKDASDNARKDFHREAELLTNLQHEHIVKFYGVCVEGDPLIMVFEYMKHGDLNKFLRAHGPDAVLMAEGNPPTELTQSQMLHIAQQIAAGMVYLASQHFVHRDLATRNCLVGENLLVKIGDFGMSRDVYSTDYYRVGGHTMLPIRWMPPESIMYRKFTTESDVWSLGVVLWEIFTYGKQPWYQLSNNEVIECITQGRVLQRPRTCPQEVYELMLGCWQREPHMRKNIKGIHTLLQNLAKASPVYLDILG
T15 sequence (Q9BXA7 whole entry): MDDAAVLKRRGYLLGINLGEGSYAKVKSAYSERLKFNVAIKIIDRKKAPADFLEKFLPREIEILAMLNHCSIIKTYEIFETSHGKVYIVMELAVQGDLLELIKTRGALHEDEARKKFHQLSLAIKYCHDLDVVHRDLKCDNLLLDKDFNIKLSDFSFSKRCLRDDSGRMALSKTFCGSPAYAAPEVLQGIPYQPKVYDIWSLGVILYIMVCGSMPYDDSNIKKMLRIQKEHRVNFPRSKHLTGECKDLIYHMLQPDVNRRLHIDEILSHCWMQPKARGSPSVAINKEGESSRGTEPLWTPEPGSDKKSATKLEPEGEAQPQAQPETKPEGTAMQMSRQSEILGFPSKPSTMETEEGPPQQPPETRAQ
T13 sequence (P51451 whole entry): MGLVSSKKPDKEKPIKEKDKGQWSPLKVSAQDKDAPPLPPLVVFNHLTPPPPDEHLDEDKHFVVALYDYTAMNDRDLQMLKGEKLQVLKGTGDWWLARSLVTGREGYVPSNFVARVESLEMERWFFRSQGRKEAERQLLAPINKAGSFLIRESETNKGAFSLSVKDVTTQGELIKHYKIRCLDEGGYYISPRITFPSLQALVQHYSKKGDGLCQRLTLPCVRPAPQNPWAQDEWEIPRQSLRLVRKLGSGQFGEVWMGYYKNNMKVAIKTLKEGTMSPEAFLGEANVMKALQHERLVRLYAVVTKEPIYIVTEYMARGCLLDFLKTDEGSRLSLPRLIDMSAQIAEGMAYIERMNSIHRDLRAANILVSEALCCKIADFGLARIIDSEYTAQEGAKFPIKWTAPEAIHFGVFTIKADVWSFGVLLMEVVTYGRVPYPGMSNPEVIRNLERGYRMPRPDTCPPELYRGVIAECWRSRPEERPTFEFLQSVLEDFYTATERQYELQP
T7 sequence (P53355 whole entry): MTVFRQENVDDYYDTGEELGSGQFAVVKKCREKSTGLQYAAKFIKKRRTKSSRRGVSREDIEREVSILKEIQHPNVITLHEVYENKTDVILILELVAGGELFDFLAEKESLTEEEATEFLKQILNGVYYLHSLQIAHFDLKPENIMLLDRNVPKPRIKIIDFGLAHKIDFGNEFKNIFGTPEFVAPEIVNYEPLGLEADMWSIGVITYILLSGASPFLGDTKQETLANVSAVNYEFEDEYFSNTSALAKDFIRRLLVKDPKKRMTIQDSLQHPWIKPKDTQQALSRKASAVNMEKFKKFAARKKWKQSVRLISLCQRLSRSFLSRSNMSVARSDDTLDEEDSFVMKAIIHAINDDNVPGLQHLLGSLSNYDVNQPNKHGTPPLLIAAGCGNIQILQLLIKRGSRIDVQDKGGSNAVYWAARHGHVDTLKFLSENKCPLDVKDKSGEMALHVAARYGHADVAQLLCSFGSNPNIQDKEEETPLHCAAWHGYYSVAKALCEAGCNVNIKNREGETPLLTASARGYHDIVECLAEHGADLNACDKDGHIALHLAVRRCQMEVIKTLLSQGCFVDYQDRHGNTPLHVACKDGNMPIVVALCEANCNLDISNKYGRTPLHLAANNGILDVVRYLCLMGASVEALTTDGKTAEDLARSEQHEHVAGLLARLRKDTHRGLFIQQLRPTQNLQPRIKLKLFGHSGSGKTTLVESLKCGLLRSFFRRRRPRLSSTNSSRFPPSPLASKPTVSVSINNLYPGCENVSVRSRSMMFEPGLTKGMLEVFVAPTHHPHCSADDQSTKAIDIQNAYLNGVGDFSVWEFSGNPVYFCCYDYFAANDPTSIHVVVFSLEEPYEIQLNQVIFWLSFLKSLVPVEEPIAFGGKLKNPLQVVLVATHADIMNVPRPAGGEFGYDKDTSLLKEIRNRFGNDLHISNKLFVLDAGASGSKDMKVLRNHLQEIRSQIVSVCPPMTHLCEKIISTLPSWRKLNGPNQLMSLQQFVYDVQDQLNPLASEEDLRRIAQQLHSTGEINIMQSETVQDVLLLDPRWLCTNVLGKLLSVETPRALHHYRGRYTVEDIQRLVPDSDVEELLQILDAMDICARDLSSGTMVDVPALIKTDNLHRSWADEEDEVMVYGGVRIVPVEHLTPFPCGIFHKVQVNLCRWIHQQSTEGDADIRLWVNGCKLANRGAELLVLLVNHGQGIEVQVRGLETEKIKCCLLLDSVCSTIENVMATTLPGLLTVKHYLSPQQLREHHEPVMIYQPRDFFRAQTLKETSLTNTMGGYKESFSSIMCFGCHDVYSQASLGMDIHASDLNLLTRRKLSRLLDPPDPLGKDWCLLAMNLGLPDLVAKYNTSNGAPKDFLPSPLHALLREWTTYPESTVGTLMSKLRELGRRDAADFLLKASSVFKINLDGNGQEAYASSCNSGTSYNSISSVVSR
T12 sequence (P28482 whole entry): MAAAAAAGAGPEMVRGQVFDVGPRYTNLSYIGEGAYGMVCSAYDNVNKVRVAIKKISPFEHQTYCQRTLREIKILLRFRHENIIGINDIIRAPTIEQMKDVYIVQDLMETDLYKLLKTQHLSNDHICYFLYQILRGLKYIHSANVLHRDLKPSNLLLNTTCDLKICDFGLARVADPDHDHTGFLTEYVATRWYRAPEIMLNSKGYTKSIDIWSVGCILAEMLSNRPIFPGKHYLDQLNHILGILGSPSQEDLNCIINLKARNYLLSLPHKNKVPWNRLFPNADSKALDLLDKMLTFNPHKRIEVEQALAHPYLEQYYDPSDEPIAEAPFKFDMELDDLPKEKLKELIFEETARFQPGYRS
T14 sequence (P11309 whole entry): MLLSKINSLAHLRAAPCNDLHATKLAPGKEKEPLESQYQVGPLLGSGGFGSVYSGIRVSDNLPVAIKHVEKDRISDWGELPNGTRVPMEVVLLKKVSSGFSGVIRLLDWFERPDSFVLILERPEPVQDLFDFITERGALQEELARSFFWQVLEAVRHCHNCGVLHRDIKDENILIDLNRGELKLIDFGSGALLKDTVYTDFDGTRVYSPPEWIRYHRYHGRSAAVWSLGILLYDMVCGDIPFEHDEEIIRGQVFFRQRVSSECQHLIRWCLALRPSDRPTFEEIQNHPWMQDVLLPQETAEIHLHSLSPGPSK

Turning to `CC(C)C(C)CNCc1ccc2c(c1)[nH]/c(=N\C(=O)c1ccc(C3=CN=NC3)s1)n2CC(C)(C)O` (centres unmarked) [BI 10N], in test [1], the “increase in doubling time” value is “about 50%”. In addition, the inhibition at 0.2 µM against PYK2 was found to be 35.1%; at PDGFRα (single inhibitor concentration), 101%; against PAK2, 4.5%; at MST1 (single inhibitor concentration) it was 91.7%; against DAPK1, 5.5%; on CHK1, 60.3%. Besides, the inhibition at 0.2 µM against AKT1 is -2.2%; at p38α it was -4.1%; against PBK it was 1.7%; against Erk2, -1.5%; at PIM1, 10.4%; against TSSK1 (single inhibitor concentration), 88.9%. For the same molecule, the inhibition at 0.2 µM at CK1ε is 76.2%; on CSK, 32.4%; against JAK3, 75%. The 50% inhibitory concentration (IC50) on PDGFRα (Table 2, by Carna Biosciences) was determined as 10.1 nM; at LYNa, 36.6 nM; at MST1 (Table 2, by Carna Biosciences), 26 nM; against TRKB, 1.28 nM; against BLK, 52.2 nM; against TSSK1 (Table 2, by Carna Biosciences), 28.6 nM. Besides, the “selectivity for ITK over TRKB” value at TRKB is “about 10 fold”.
